Laboratory results taken from ChEMBL document CHEMBL5463725, “Data for DCP probe BAY-277” (2023).
The source made the active and inactive calls. The rule behind the calls is not given here.

Experiments:
[1] = target: D(4) dopamine receptor (Homo sapiens) (UniProt P21917); details: Compound concentration 10.0 uM
[2] = target: T1, Muscarinic acetylcholine receptor M2 (Homo sapiens) (UniProt P08172); details: Compound concentration 10.0 uM
T1 sequence (whole entry): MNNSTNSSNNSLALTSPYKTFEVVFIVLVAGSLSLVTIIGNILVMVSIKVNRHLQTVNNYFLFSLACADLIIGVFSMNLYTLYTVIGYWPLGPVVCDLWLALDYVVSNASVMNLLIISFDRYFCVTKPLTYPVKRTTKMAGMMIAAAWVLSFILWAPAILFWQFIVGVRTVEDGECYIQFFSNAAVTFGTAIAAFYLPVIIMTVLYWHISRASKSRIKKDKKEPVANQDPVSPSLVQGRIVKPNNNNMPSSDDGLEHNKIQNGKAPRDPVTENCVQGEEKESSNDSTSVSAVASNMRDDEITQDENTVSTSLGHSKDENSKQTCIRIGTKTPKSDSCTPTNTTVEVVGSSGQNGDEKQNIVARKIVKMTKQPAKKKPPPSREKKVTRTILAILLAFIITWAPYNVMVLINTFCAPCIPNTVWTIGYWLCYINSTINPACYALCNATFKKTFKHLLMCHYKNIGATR

[3] = target: Histamine H2 receptor (Homo sapiens) (UniProt P25021); details: Compound concentration 10.0 uM
Histamine H2 receptor (Homo sapiens), sequence (P25021 whole entry): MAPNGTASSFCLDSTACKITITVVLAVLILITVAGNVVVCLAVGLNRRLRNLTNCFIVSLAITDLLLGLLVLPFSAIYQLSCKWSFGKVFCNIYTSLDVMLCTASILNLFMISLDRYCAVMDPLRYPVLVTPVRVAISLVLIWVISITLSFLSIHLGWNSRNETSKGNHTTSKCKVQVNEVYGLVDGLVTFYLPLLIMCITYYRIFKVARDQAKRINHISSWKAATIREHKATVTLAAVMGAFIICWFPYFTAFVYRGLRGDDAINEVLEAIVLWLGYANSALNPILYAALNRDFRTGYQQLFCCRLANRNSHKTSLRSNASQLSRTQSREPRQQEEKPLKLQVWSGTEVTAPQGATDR

[4] = target: 5-hydroxytryptamine receptor 2A (Homo sapiens) (UniProt P28223); details: Compound concentration 10.0 uM
5-hydroxytryptamine receptor 2A (Homo sapiens), sequence (P28223 whole entry): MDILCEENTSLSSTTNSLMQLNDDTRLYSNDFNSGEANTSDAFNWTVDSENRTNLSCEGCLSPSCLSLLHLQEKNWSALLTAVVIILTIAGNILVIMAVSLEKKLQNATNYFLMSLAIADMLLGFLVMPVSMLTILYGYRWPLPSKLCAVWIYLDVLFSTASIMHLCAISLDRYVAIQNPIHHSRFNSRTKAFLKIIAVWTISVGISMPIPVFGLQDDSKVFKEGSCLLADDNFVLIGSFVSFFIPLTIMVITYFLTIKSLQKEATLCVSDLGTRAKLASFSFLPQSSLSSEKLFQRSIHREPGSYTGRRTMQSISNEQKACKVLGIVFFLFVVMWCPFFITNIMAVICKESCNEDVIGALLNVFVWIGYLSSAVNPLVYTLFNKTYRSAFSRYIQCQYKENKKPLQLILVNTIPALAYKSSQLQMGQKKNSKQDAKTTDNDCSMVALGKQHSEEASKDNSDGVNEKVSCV

[5] = target: T2, Muscarinic acetylcholine receptor M1 (Homo sapiens, UniProt P11229); test: GPCRScan assay: inhibition of M1; parameters: radioligand conc. used [nm] 0.3 – 1.2, parental cells stable CHO
T2 sequence (P11229 whole entry): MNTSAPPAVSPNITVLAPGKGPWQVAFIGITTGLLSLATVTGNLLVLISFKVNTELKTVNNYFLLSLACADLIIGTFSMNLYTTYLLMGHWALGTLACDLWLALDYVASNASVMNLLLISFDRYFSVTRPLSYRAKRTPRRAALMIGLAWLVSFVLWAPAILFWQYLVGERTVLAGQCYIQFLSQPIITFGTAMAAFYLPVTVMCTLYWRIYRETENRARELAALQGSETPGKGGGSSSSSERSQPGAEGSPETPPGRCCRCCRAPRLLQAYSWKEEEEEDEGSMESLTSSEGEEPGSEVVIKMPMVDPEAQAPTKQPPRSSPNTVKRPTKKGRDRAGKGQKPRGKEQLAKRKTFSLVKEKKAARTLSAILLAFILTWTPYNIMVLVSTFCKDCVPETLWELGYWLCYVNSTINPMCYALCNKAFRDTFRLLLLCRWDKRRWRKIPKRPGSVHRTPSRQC

[6] = target: Prostaglandin G/H synthase 1 (Homo sapiens) (UniProt P23219); test: Inhibition of Cyclooxygenase COX-1 at 10.0 µM in the Eurofins Panlabs Safety Screen; details: Compound concentration 10.0 uM
Prostaglandin G/H synthase 1 (Homo sapiens), sequence (P23219 whole entry): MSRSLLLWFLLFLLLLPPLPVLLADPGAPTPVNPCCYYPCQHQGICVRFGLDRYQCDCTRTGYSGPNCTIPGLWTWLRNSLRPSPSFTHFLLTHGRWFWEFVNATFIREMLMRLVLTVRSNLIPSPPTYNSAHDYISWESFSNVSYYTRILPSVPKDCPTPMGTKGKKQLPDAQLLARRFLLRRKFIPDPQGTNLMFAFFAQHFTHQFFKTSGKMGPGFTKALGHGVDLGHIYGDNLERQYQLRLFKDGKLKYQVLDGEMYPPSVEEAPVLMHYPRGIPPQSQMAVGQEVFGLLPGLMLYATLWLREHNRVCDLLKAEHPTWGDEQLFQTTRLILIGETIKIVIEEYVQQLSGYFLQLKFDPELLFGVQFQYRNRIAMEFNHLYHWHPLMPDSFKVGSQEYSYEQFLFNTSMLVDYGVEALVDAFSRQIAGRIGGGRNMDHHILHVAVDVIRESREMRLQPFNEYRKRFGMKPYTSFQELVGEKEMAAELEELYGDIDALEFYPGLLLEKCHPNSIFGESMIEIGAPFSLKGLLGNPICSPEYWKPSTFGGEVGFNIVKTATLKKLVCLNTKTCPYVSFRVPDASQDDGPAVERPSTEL

[7] = target: Mu-type opioid receptor (Homo sapiens) (UniProt P35372); details: Compound concentration 10.0 uM
Mu-type opioid receptor (Homo sapiens), sequence (P35372 whole entry): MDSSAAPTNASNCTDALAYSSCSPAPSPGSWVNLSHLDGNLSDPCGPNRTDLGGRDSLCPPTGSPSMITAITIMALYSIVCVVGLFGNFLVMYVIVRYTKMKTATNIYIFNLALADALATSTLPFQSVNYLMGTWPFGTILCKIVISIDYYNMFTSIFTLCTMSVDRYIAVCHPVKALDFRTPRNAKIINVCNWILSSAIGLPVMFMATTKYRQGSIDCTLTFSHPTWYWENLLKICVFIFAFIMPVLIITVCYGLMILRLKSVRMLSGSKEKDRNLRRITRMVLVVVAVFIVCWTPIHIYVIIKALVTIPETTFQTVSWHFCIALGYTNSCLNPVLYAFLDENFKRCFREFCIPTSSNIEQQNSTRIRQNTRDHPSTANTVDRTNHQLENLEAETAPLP

[8] = target: T3, GABA-A receptor; anion channel (Rattus norvegicus) (UniProt O09028+P15431+P18506+P18508+P19969+P20236+P23574+P23576+P28471+P28473+P30191+P62813+P63079+P63138+Q91ZM7+Q9ES14); test: Inhibition of GABAA, Flunitrazepam, Central at 10.0 µM in the Eurofins Panlabs Safety Screen; assay type: protein-complex assay; details: Compound concentration 10.0 uM
[9] = target: Neuronal acetylcholine receptor; alpha3/beta4 (Homo sapiens) (UniProt P30926+P32297); test: Inhibition of Nicotinic Acetylcholine alpha3beta4 at 10.0 µM in the Eurofins Panlabs Safety Screen; assay type: protein-complex assay; details: Compound concentration 10.0 uM
[10] = target: Type-1 angiotensin II receptor (Homo sapiens) (UniProt P30556); test: Inhibition of Angiotensin AT1 at 10.0 µM in the Eurofins Panlabs Safety Screen; details: Compound concentration 10.0 uM
[11] = target: Methionine aminopeptidase 2 (Homo sapiens, UniProt P50579); test: Degradation in HT1080 cells (CE) (Capillary electrophoresis (CE)); assay type: functional, cell-based; details: ht-1080
Methionine aminopeptidase 2, sequence (P50579 whole entry): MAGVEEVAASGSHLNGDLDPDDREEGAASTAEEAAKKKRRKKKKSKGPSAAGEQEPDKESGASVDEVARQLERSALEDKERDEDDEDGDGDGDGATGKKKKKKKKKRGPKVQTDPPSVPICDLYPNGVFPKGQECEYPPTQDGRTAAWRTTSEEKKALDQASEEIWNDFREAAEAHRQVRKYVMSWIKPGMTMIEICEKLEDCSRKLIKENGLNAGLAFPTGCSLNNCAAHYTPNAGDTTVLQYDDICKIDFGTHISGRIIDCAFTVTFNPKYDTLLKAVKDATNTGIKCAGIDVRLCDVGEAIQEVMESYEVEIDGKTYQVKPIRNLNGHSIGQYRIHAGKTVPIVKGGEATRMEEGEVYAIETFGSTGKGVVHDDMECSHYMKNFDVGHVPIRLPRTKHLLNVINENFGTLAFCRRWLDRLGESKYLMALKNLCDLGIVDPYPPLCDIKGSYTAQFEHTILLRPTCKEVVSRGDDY

[12] = target: Delta-type opioid receptor (Homo sapiens) (UniProt P41143); test: Inhibition of Opiate delta1 (OP1, DOP) at 10.0 µM in the Eurofins Panlabs Safety Screen; details: Compound concentration 10.0 uM
[13] = target: D(2) dopamine receptor (Homo sapiens) (UniProt P14416); test: Inhibition of Dopamine D2S at 10.0 µM in the Eurofins Panlabs Safety Screen; details: Compound concentration 10.0 uM
D(2) dopamine receptor (Homo sapiens), sequence (P14416 whole entry): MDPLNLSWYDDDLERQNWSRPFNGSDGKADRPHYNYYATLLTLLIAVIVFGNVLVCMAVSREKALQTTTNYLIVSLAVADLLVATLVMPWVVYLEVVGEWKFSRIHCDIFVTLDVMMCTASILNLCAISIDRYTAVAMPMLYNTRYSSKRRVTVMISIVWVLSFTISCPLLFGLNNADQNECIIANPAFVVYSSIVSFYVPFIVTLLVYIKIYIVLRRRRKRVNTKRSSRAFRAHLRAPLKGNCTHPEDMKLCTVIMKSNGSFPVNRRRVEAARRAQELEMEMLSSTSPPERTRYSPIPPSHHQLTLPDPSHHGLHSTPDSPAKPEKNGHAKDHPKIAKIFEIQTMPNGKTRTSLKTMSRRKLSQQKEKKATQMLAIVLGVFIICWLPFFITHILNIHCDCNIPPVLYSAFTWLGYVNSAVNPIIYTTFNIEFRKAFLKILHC

[14] = target: Beta-1 adrenergic receptor (Homo sapiens) (UniProt P08588); test: Inhibition of Adrenergic beta1 at 10.0 µM in the Eurofins Panlabs Safety Screen; details: Compound concentration 10.0 uM
[15] = target: T3, GABA-A receptor; anion channel (Rattus norvegicus); test: Inhibition of GABAA, Chloride Channel, TBOB at 10.0 µM in the Eurofins Panlabs Safety Screen; assay type: protein-complex assay; details: Compound concentration 10.0 uM
[16] = target: TGF-beta receptor type-2 (Homo sapiens) (UniProt P37173); test: Inhibition of TGFBR2(h) at 10.0 µM in the Eurofins Kinase panel; details: Compound concentration 10.0 uM
Histamine H3 receptor [17] = target: T4, Histamine H3 receptor (Homo sapiens, UniProt Q9Y5N1); test: GPCRScan assay: inhibition of H3; parameters: radioligand conc. used [nm] 0.5 – 1.0, parental cells HEK Flp-In
T4 sequence (Q9Y5N1 whole entry): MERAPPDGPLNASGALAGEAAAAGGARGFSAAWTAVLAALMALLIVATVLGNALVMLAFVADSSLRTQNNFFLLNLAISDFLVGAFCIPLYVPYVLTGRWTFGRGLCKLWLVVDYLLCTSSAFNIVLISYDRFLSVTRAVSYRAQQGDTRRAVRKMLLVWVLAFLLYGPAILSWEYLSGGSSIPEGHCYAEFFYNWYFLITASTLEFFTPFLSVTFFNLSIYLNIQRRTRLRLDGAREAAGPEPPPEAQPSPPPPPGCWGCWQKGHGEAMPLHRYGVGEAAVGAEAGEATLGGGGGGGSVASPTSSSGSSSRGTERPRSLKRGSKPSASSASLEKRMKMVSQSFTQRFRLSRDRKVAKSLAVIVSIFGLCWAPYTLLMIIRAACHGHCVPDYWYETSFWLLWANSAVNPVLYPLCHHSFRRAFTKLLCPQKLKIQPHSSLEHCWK

[18] = target: Sodium-dependent dopamine transporter (Homo sapiens, UniProt Q01959); details: Compound concentration 10.0 uM
Sodium-dependent dopamine transporter, sequence (Q01959 whole entry): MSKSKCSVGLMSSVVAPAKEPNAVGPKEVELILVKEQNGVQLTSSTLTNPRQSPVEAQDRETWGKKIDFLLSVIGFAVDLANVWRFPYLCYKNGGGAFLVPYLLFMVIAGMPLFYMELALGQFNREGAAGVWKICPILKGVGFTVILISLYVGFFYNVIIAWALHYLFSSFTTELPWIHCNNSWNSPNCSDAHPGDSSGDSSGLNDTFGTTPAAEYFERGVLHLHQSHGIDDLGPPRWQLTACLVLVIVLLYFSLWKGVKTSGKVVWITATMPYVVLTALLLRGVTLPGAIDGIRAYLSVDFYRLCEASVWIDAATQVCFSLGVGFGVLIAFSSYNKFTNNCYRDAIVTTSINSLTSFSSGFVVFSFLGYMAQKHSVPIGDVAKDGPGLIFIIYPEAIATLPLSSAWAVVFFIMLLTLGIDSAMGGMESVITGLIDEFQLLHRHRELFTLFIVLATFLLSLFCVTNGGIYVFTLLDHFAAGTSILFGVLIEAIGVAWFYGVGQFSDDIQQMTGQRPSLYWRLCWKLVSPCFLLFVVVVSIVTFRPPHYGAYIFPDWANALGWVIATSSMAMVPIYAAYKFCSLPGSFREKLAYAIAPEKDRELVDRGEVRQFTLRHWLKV

[19] = target: Tyrosine-protein kinase SYK (Homo sapiens) (UniProt P43405); test: Inhibition of Syk(h) at 10.0 µM in the Eurofins Kinase panel; details: Compound concentration 10.0 uM
[20] = target: Tyrosine-protein kinase HCK (Homo sapiens) (UniProt P08631); test: Inhibition of Hck(h) at 10.0 µM in the Eurofins Kinase panel; details: Compound concentration 10.0 uM
[21] = target: Adenosine receptor A3 (Homo sapiens) (UniProt P0DMS8); test: Inhibition of Adenosine A3 at 10.0 µM in the Eurofins Panlabs Safety Screen; details: Compound concentration 10.0 uM
Adenosine receptor A3 (Homo sapiens), sequence (P0DMS8 whole entry): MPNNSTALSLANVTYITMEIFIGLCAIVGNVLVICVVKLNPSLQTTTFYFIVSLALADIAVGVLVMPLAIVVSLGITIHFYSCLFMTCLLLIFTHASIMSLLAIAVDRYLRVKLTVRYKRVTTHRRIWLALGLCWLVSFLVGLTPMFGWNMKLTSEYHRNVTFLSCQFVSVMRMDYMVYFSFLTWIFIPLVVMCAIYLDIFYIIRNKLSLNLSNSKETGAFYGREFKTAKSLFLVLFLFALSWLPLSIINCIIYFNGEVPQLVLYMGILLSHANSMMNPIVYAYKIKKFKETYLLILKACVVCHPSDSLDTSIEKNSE

[22] = target: Purinergic P2Y (Rattus norvegicus) (UniProt O35811+Q9EPX4+P49651+Q63371+P41232+O35881+Q6GUG4); test: Inhibition of Purinergic P2Y, non-selective at 10.0 µM in the Eurofins Panlabs Safety Screen; assay type: protein assay; details: Compound concentration 10.0 uM
[23] = target: Adenosine receptor A1 (Homo sapiens) (UniProt P30542); test: Inhibition of Adenosine A1 at 10.0 µM in the Eurofins Panlabs Safety Screen; details: Compound concentration 10.0 uM
[24] = target: T5, Muscarinic acetylcholine receptor M1 (Homo sapiens) (UniProt P11229); details: Compound concentration 10.0 uM
T5 sequence (whole entry): T2 sequence (P11229 whole entry)

Histamine H3 receptor [25] = target: T4, Histamine H3 receptor; test: Inhibition of Histamine H3 at 10.0 µM in the Eurofins Panlabs Safety Screen; details: Compound concentration 10.0 uM
[26] = target: Prostaglandin G/H synthase 2 (Homo sapiens) (UniProt P35354); test: Inhibition of Cyclooxygenase COX-2 at 10.0 µM in the Eurofins Panlabs Safety Screen; details: Compound concentration 10.0 uM
[27] = target: 5-hydroxytryptamine receptor 1B (Homo sapiens) (UniProt P28222); details: Compound concentration 10.0 uM
5-hydroxytryptamine receptor 1B (Homo sapiens), sequence (P28222 whole entry): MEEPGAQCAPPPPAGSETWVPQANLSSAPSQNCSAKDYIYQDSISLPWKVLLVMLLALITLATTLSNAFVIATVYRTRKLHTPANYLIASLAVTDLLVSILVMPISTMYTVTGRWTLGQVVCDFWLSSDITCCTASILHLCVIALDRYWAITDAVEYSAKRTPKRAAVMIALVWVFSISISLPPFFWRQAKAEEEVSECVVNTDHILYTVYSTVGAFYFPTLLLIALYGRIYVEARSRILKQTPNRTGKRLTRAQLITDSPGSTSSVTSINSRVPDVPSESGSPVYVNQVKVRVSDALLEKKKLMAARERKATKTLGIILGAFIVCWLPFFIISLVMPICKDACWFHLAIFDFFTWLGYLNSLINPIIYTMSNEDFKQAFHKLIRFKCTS

D(4) dopamine receptor (Homo sapiens), sequence (P21917 whole entry): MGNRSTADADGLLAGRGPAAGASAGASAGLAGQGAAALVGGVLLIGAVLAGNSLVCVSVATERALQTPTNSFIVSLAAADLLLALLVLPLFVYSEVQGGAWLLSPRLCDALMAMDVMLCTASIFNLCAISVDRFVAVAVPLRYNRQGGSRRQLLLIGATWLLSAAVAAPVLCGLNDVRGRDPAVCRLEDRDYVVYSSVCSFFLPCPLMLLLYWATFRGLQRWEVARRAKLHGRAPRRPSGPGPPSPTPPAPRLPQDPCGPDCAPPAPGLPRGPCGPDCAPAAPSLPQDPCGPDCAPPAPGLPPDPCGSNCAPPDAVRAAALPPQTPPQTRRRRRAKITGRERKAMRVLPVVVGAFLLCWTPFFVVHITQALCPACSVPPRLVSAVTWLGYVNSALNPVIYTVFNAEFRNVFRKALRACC

SMILES	inhibition [1] [%]	inhibition [2] [%]	inhibition [3] [%]	inhibition [4] [%]	Ki ([5]; read-out: Ki) [nM]	Ki ([5]; read-out: pKi (converted)) [nM]	inhibition [6] [%]	inhibition [7] [%]	inhibition [8] [%]	inhibition [9] [%]	inhibition [10] [%]	DC50 [11]	inhibition [12] [%]	inhibition [13] [%]	inhibition [14] [%]	inhibition [15] [%]	inhibition [16] [%]	Ki (Histamine H3 receptor [17]; read-out: Ki) [nM]	Ki (Histamine H3 receptor [17]; read-out: pKi (converted)) [nM]	inhibition [18] [%]	other results
O=C1NCCCC1N1Cc2cc(C3CCN(C(=O)CCCCCN4CCC(c5ccc(Oc6nn7cnnc7c7c6CCCC7)cc5)CC4)CC3)ccc2C1=O (stereo not drawn)	19.1	57.2	42.1	21	2190	2190	21	13.8	15	6	2	> 1000 nM (not active)	7	13	10	-5	11.3	73.2	72.4	51.4	inhibition [19]: 20.4%; inhibition [20]: 17.9%; inhibition [21]: 21%; inhibition [22]: 12%; inhibition [23]: 3%; inhibition [24]: 60.4%; inhibition (Histamine H3 receptor [25]): 85%; inhibition [26]: -7%; inhibition [27]: 14.2%
O=C1CCC(N2Cc3cc(C4CCN(C(=O)CCCCCN5CCC(c6ccc(Oc7nn8cnnc8c8c7CCCC8)cc6)CC5)CC4)ccc3C2=O)C(=O)N1 (stereo not drawn)	14.3	64.3	42.2	18.6	1670	1660	16	16.3	10	24	-4	8.93 nM (active)	0	-8	0	-6	12.7	72.8	70.8	50.7	inhibition [19]: 25%; inhibition [20]: 12.8%; inhibition [21]: 16%; inhibition [22]: 4%; inhibition [23]: 7%; inhibition [24]: 71.3%; inhibition (Histamine H3 receptor [25]): 81%; inhibition [26]: -6%; inhibition [27]: 21.9%
